Experimental findings from US20100298370A1, “BENZOTHIAZOLYL THIENOPYRIDINE DERIVATIVES AND USES THEREOF” (priority 2006, published 2010) are described below.

Structures are written as SMILES. “Also recorded” adds a separate entry of the source.

Assay [1] relates to carrageenan-induced paw edema in BALB/c mice. Put plainly: Carrageenan-induced paw edema. It is filed as in vivo. The settings on record: 20 mg/kg i.p., 60 min before carrageenan; 4 hours after induction. As to the method: FIG. 1 is a graph showing the anti-inflammatory activity of Compounds 1-6 administered to mice intraperitoneally (i.p.) at 20 mg/kg, 1 hour before induction of paw edema (10-12 mice per group). The swelling of paws was measured 4 hours after induction, compared to controls and expressed as difference in paw thickness in mm (y-axis). The results were statistically evaluated by Student's t-test and statistical significance is indicated by one, two or three stars ([…]).
Acute edema was induced in the […] of BALB/c mice (10-12 mice/group) by injecting 0.02 ml of freshly prepared solution of 2% carrageenan (Sigma) under the plantar region of right hind paw (Tones et al., 2000). Carrageenan was injected 60 min after administration of the test compounds. The right paw received 0.02 ml of saline, which served as a control. The paw thickness was measured at 2, 4 and 24 hours after carrageenan challenge using a Mitutoyo engineer's micrometer. The difference between right and left pad was expressed as mean±SEM. Test compounds were injected intraperitoneally (i.p.) (20 mg/kg) in 0.5% Tween 80 in saline and vehicle control group received 0.5% Tween 80 in saline.
Compound 1 reduced paw edema by 33% and the reduction was statistically significant as determined by Student's t-test with […].
(In the carrageenan paw model, swelling and tenderness develop within hours.)

For assay [2], the system named is oxazolone-induced ear swelling in BALB/c mice. The assay is described as follows: Delayed-type hypersensitivity (DTH), oxazolone mouse ear-swelling test. It is filed as in vivo. Particulars: for reduction of ear swelling: per os 50 mg/kg, 1 hour prior to challenge, after 48 hours; for inhibition of ear swelling (in words): DTH, FIG. 2, oral 50 mg/kg. As to the method:
FIG. 2 is a graph showing the anti-inflammatory activity of Compounds 1, 2, 4, 5, 6 administered to mice orally at 50 mg/kg in a model of delayed-type hypersensitivity (DTH) (11-13 mice per group). The results for dexamethasone (10 mg/kg i.p.), a steroid positive control, are also shown. The y-axis represents difference in ear thickness in mm compared to control. The results were statistically evaluated by Student's t-test and statistical significance is indicated by one, two or three stars ([…]).
BALB/c mice (Velaz, Prague, Czech Republic; 8 week-old; 10-15 animals per group) were sensitized by topical application of a 2% oxazolone (4-ethoxymethylene-2-phenyl-2-oxazolin-5-one; Sigma, St Louis, Mo.) solution in acetone/olive oil (4:1 vol/vol) to a shaved abdomen area (50 μl) and to each paw (5 μl)(Lange-Asschenfeldt et al., 2002). Topical oxazolone administration induces immunomodulatory activity. Five days after sensitization, right ears were challenged by topical application of 10 μl of a 1% oxazolone solution, whereas left ears were treated with vehicle alone. Test compounds were administered 1 hour prior to challenge. The extent of inflammation was measured 24 hours and 48 hours after challenge, using the mouse ear-swelling test. Animals were numbered (tail marking) and weighed and the thickness of both ears was recorded with a constant-loading dial micrometer (Mitutoyo, Tokyo). The unpaired Student t-test was used for statistical analyses. Test compounds were administered per os at 50 mg/kg as a suspension with 0.5% methylcellulose. The vehicle control group received the same volume of 0.5% methylcellulose.

Assay [3] addresses T1, VEGF binding to heparin (HS-GAG) (Homo sapiens, UniProt P15692).
T1 construct: purchased Research and Development Systems
T1 sequence (P15692 27-191 isoform P15692-4): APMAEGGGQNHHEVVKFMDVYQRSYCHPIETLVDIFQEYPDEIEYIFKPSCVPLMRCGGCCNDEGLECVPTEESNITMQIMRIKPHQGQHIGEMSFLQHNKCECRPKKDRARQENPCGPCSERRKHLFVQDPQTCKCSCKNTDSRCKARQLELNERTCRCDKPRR
Put plainly: In vitro VEGF to HS-GAG binding assay (ELISA, heparin-BSA coated plate). An excerpt:
An in vitro assay was used to assess the ability of test compounds of general formulas I and II to inhibit the interaction of VEGF with HS-GAGs. The assay was designed to for determine the concentration required for 50% inhibition (IC-50) for each specific compound. The test compounds were purchased from Life Chemicals Ltd. (Kiev, Ukraine), and the GAG used was heparin (heparin grade I-A; Sigma) conjugated to bovine serum albumin (Sigma) and diluted 1:200 in phosphate-buffered saline (PBS; pH 7.3). The heparin was added to a 96-well polystyrene ELISA plate (NUNC; 0.1 ml per well) and incubated overnight at 4° C. Following the incubation, the plate was washed thoroughly, by immersion, with de-ionized water and then with PBS (pH 7.3) containing Tween 20 (Sigma, 0.05%). The ELISA plate was then blocked with BSA (ICN, 3%, 200 μl per well) for 1 hour at room temperature. Following blocking, the plate was washed with de-ionized water, and then twice with PBS (pH 7.3) containing Tween 20. Recombinant human VEGF (Research and Development Systems) dissolved in PBS supplemented with BSA (0.1%) was added to the ELISA plate. The test compounds were dissolved in DMSO (MERCK), diluted in PBS and added to the wells at concentrations ranging from 0.01 to 200 μM to obtain a final volume 100 μl per well, and incubated for 60 minutes at room temperature with shaking. Following incubation, the plate was washed with de-ionized water and PBS (pH 7.3) containing Tween 20. Anti-human VEGF (1:2000; Research and Development Systems) diluted in PBS supplemented with BSA (1%) was added to the ELISA plate (100 per well) and incubated for 60 minutes at room temperature with shaking. Following incubation, the plate was washed with de-ionized water and then with PBS (pH 7.3) containing Tween 20. Streptavidin-HRP (1:200; Research and Development Systems Cat. No. DY998) diluted in PBS supplemented with BSA (1%) was added to the ELISA plate (100 per well) and incubated for 20 minutes at room temperature with shaking. The plate was then washed with de-ionized water and twice with PBS (pH 7.3) containing Tween 20. The peroxidase substrate chromogen tetramethyl benzidine (TMB; Dako) was added (100 μl per well) to the ELISA plate and incubated at room temperature. After 15 minutes, ELISA Stop Solution (hydrochloric acid 1N, sulfuric acid 3N) was added (100 μl per well) to stop the peroxidase catalyzed colorimetric reaction. The Optical Density (OD) of the samples was measured at 450 nm using an ELISA plate reader (Dynatech MR5000). Data were analyzed with Graphpad Prism software and IC-50 values were determined.
Percent inhibition at 30 μM concentration is shown and for selected compounds IC-50 was established.
(In general: In an ELISA, binding on a coated surface is turned into a signal by an enzyme label.)

The IC50 is the concentration at which inhibition is half-maximal. Usually inhibition stands for the relative decrease from the control value, in per cent. Lower therefore signals little suppression. Turning to `CCN1CCc2c(sc(NC(=O)c3ccc(C#N)cc3)c2-c2nc3ccccc3s2)C1` [Compound 1, N-[3-(2-benzothiazolyl)-4,5,6,7-tetrahydro-6-ethylthieno[2,3-c]pyridin-2-yl]-4-cyanobenzamide], in assay [1], the “reduction of paw edema” value was 33%. Further, the “reduction of ear swelling” value in assay [2] was 41.4%. Further, in assay [3], the IC50 was 220 nM and 30 µM produced 82% inhibition.

`CC(C)N1CCc2c(sc(NC(=O)c3ccc(N(C)C)cc3)c2-c2nc3ccccc3s2)C1` [Compound 2, N-[3-(2-benzothiazolyl)-4,5,6,7-tetrahydro-6-(1-methylethyl)thieno[2,3-c]pyridin-2-yl]-4-(dimethylamino)benzamide]: the “reduction of paw edema” value in assay [1] was found to be 28.1%. In addition, the “reduction of ear swelling” value in assay [2] is reported as 18.1%. In assay [3], this molecule had an IC50 of 1700 nM and an inhibition at 30 µM of 53%.

Consider `CSc1ccc(CC(=O)Nc2sc3c(c2-c2nc4ccccc4s2)CCN(C)C3)cc1` [Compound 3, N-[3-(2-benzothiazolyl)-4,5,6,7-tetrahydro-6-methylthieno[2,3-c]pyridin-2-yl]-2-(4-methylthiophenyl)acetamide], for which, in assay [1], the “reduction of paw edema” value stood at 32.1%. In assay [3], this molecule showed an inhibition at 30 µM of 60%.

As for `COc1cccc(OCC(=O)Nc2sc3c(c2-c2nc4ccccc4s2)CCN(C)C3)c1` [Compound 4, N-[3-(2-benzothiazolyl)-4,5,6,7-tetrahydro-6-methylthieno[2,3-c]pyridin-2-yl]-2-(3-methoxyphenoxy)acetamide], the “reduction of paw edema” value in assay [1] amounted to 22.8%. Further, in assay [2], the “inhibition of ear swelling (in words)” value is recorded as “significantly inhibited ear swelling” and the “reduction of ear swelling” value turned out to be 33.5%. In assay [3], this molecule showed an IC50 of 1800 nM and an inhibition at 30 µM of 65%.

`CN1CCc2c(sc(NC(=O)c3cc4ccccc4o3)c2-c2nc3ccccc3s2)C1` [Compound 5, N-[3-(2-benzothiazolyl)-4,5,6,7-tetrahydro-6-methylthieno[2,3-c]pyridin-2-yl]-benzo[b]furan-2-carboxamide]: the “reduction of paw edema” value in assay [1] was determined as 29.2%. Further, the “inhibition of ear swelling (in words)” value in assay [2] (50 mg/kg) is recorded as “significantly inhibited ear swelling; also recorded: Particularly strong response, comparable with the steroid dexamethasone”. In assay [2], the “reduction of ear swelling” value is on record as 49.3%. In assay [3], this molecule came in with an IC50 of 140 nM and an inhibition at 30 µM of 81%.

As to `CN1CCc2c(sc(NC(=O)CCN3C(=O)c4ccccc4C3=O)c2-c2nc3ccccc3s2)C1` [Compound 6, N-[3-(2-benzothiazolyl)-4,5,6,7-tetrahydro-6-methylthieno[2,3-c]pyridin-2-yl]-3-(1,3-dihydro-1,3-dioxo-2H-isoindole-2)propanamide], the “reduction of paw edema” value in assay [1] was determined as 19.5%. Moreover, in assay [2], the “inhibition of ear swelling (in words)” value is “significantly inhibited ear swelling” and the “reduction of ear swelling” value was 19.1%. Also, in assay [3], the inhibition at 30 µM turned out to be 29%.

For `O=C(Nc1sc2c(c1-c1nc3ccccc3s1)CCN(Cc1ccccc1)C2)C1COc2ccccc2O1` (centres unmarked) [Compound 33, N-[3-(2-benzothiazolyl)-4,5,6,7-tetrahydro-6-phenylmethylthieno[2,3-c]pyridin-2-yl]-2,3-dihydro-1,4-benzodioxin-2-carboxamide], the inhibition at 30 µM in assay [3] is 50%.

`CN1CCc2c(sc(NC(=O)c3ccc4ncsc4c3)c2-c2nc3ccccc3s2)C1` [Compound 34, N-[3-(2-benzothiazolyl)-4,5,6,7-tetrahydro-6-methylthieno[2,3-c]pyridin-2-yl]-6-benzothiazolecarboxamide]: in assay [3], the IC50 came out at 200 nM and the inhibition at 30 µM was 77%.

On to `CCOC(=O)N1CCc2c(sc(NC(=O)c3ccccc3)c2-c2nc3ccccc3s2)C1` [Compound 35, N-[3-(2-benzothiazolyl)-4,5,6,7-tetrahydro-6-ethoxycarbonylthieno[2,3-c]pyridin-2-yl]benzamide], for which, in assay [3], the inhibition at 30 µM is 37%.

In assay [3], `CC(=O)N1CCc2c(sc(NC(=O)c3cccc(Br)c3)c2-c2nc3ccccc3s2)C1` [Compound 36, N-[3-(2-benzothiazolyl)-4,5,6,7-tetrahydro-6-acetylthieno[2,3-c]pyridin-2-yl]-3-bromobenzamide] returned an inhibition at 30 µM of 31%.

`CC(=O)N1CCc2c(sc(NC(=O)c3ccc(C#N)cc3)c2-c2nc3ccccc3s2)C1` [Compound 37, N-[3-(2-benzothiazolyl)-4,5,6,7-tetrahydro-6-acetylthieno[2,3-c]pyridin-2-yl]-4-cyanobenzamide]: in assay [3], the IC50 was 350 nM and the inhibition at 30 µM is 75%.

Consider `CCN1CCc2c(sc(NC(=O)CCS(=O)(=O)c3ccccc3)c2-c2nc3ccccc3s2)C1` [Compound 38, N-[3-(2-benzothiazolyl)-4,5,6,7-tetrahydro-6-ethylthieno[2,3-c]pyridin-2-yl]-3-(phenylsulfonyl)propanamide], for which testing at 30 µM in assay [3] gave an inhibition of 50%.

With `Cc1ccc(S(=O)(=O)CC(=O)Nc2sc3c(c2-c2nc4ccccc4s2)CCN(C)C3)cc1` [Compound 39, N-[3-(2-benzothiazolyl)-4,5,6,7-tetrahydro-6-methylthieno[2,3-c]pyridin-2-yl]-(4-methylphenylsulfonyl)acetamide], the inhibition at 30 µM in assay [3] was 42%.

Consider `Cc1ccc(CC(=S)Nc2sc3c(c2-c2nc4ccccc4s2)CCN(C)C3)cc1` [Compound 40, N-[3-(2-benzothiazolyl)-4,5,6,7-tetrahydro-6-methylthieno[2,3-c]pyridin-2-yl]-(4-methylphenyl)thioacetamide], for which the inhibition at 30 µM in assay [3] came to 41%.

In the case of `C[C@@H]1C[C@H]2[C@@H]3CCC4=CC(=O)C=C[C@]4(C)[C@@]3(F)[C@@H](O)C[C@]2(C)[C@@]1(O)C(=O)CO` [dexamethasone, reference compound], the “reduction in ear swelling” value in assay [2] (dexamethasone positive control, i.p. (10 mg/kg per FIG. 2)) was 46.5%.
